{"source": "patent US20170035708A1", "about": "“USE OF N-(4-TERT-BUTYLBENZYL)-3-CHLORO-N-[2-(4-CHLORO-3-ETHYL-PHENYL)-ETHYL]-2-FLUORO-5-TRIFLUOROMETHYL-BENZAMIDE FOR THE TREATMENT OF EYE DISEASES” (Hoffmann-La Roche Inc., priority 2013, published 2017)", "key": {"[1]": {"biological_target": "T1, cholesteryl ester transfer protein (CETP) (Homo sapiens, UniProt P11597)", "T1 sequence (P11597 18-493)": "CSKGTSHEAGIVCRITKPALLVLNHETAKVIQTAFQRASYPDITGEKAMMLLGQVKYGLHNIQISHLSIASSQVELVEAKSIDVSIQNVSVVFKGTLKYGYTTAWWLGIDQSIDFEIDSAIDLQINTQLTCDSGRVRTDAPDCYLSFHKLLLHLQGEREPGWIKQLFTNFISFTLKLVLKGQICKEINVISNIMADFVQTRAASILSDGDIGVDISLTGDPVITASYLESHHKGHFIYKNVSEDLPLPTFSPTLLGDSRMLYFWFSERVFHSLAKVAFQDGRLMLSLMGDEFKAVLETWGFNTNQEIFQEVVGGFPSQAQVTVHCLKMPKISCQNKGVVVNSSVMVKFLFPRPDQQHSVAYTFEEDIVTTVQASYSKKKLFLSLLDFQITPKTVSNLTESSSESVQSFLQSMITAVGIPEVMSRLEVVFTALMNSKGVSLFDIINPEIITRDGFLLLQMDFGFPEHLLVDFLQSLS", "test": "In vitro inhibition of CETP activity", "format": "biochemical"}, "[2]": {"system": "50 pharmacologically relevant receptors", "test": "Binding screen on 50 pharmacologically relevant receptors", "details": "concentration of 10 μM"}, "plasma protein": {"system": "plasma protein", "test": "In vitro plasma protein binding", "format": "in vitro ADME", "experimental": "The pharmacokinetic (PK) properties of N-(4-tert-Butyl-benzyl)-3-chloro-N-[2-(4-chloro-3-ethyl-phenyl)-ethyl]-2-fluoro-5-trifluoromethyl-benz-amide were assessed in the rat and cynomolgus monkey. […] The very high protein binding, in combination with moderate membrane permeability, is the likely cause for the low volume of distribution observed in vivo."}, "[3]": {"system": "HDL-C, LDL-C, apoA-I, apoB-100", "test": "Plasma lipids and apolipoproteins after multiple doses for 14 days in clinical study", "format": "in vivo, human", "experimental": "The CETP inhibition achieved with multiple doses of up to 420 mg N-(4-tert-Butyl-benzyl)-3-chloro-N-[2-(4-chloro-3-ethyl-phenyl)-ethyl]-2-fluoro-5-trifluoromethyl-benz-amide for 14 days in healthy subjects was associated with increase of HDL-C and apolipoprotein A-I (apoA-I) and decrease in LDL-C and apolipoprotein B-100 (apoB-100). […] The maximum mean increase from baseline ranged from 48% to 55% with the 180 and 420 mg doses, respectively, and was maintained over the entire dosing interval of 24 hours. For LDL-C, plasma levels decreased after 14 days of treatment with all N-(4-tert-Butyl-benzyl)-3-chloro-N-[2-(4-chloro-3-ethyl-phenyl)-ethyl]-2-fluoro-5-trifluoromethyl-benz-amide doses from 10 to 420 mg."}, "[4]": {"test": "Clinical pharmacokinetics, SAD/MAD study and food effect", "format": "in vivo, human", "experimental": "Two clinical studies have been completed with N-(4-tert-Butyl-benzyl)-3-chloro-N-[2-(4-chloro-3-ethyl-phenyl)-ethyl]-2-fluoro-5-trifluoromethyl-benz-amide in male healthy subject and male mildly dyslipidemic subjects.\nFollowing oral administration of N-(4-tert-Butyl-benzyl)-3-chloro-N-[2-(4-chloro-3-ethyl-phenyl)-ethyl]-2-fluoro-5-trifluoromethyl-benz-amide at single ascending doses (SAD) and multiple ascending doses (MAD) in a first clinical study, a lag time (Tlag) of 0.5 hour was observed, and Cmax was achieved on average at 3 hours post-dose.\nFood increased the oral bioavailability of N-(4-tert-Butyl-benzyl)-3-chloro-N-[2-(4-chloro-3-ethyl-phenyl)-ethyl]-2-fluoro-5-trifluoromethyl-benz-amide. A standard breakfast increased exposure in terms of AUC and Cmax by approximately 4- to 6-fold, compared with the fasted state and depending on the formulation used."}, "scavenger receptor SRB1": {"system": "scavenger receptor SRB1", "test": "Cholesterol efflux from cells", "format": "cell-based", "details": "via scavenger receptor SRB1", "text": "N-(4-tert-Butyl-benzyl)-3-chloro-N-[2-(4-chloro-3-ethyl-phenyl)-ethyl]-2-fluoro-5-trifluoromethyl-benz-amide is a potent inhibitor of cholesteryl ester transfer protein (CETP), which was originally developed for the treatment of dyslipidemia and prevention of cardiovascular events. The clinical development was discontinued in 2009 due to strategic portfolio decision; the discontinuation was not due to the safety profile of the product. […] Liquid-filled hard capsules in the dose strength of 60 mg have been developed."}, "CETP activity": {"biological_target": "T2, CETP activity (Macaca fascicularis, UniProt P47896)", "T2 construct": "from tissue; host or cells: cynomolgus monkey, in vivo (endogenous circulating CETP)", "T2 sequence (P47896 18-493)": "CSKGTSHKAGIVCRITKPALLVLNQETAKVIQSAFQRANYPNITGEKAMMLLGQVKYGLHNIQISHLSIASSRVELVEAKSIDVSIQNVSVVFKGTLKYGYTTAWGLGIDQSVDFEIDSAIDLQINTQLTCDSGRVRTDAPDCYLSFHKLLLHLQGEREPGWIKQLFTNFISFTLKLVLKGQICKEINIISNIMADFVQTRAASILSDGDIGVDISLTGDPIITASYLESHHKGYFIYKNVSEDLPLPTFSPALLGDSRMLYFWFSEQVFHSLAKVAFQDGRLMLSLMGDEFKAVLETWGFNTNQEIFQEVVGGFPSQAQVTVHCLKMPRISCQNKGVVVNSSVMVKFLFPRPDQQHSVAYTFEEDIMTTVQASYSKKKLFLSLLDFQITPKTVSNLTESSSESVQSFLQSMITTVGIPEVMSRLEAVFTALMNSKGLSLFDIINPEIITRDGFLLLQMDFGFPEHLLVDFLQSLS", "test": "In vivo inhibition of CETP activity in cynomolgus monkeys"}, "[5]": {"details": "multiple doses of up to 420 mg for 14 days, healthy subjects"}}, "note": "Several values for one entry are separate records, joined by “and”; a condition that tells them apart may be missing. Equal values may be shown once."}
{"smiles": "CCc1cc(CCN(Cc2ccc(C(C)(C)C)cc2)C(=O)c2cc(C(F)(F)F)cc(Cl)c2F)ccc1Cl", "note": "[Compound 1, N-(4-tert-Butyl-benzyl)-3-chloro-N-[2-(4-chloro-3-ethyl-phenyl)-ethyl]-2-fluoro-5-trifluoromethyl-benzamide]", "values": [{"measurement": "IC50", "setting": "[1]", "result": "8 nM and 7.21 nM"}, {"measurement": "binding to 50 pharmacologically relevant receptors", "setting": "[2]", "result": "no significant binding"}, {"measurement": "plasma protein binding in vitro", "setting": "plasma protein", "result": "extremely high and concentration-independent"}, {"measurement": "mean LDL-C decrease over the entire dosing interval", "setting": "[3]; 180 mg dose and higher doses, 14 days", "result": "at least 30%"}, {"measurement": "HDL-C maximum mean increase from baseline", "setting": "[3]; 180 mg, 14 days", "result": 48, "unit": "%"}, {"measurement": "HDL-C maximum mean increase from baseline", "setting": "[3]; 420 mg, 14 days", "result": 55, "unit": "%"}, {"measurement": "apolipoprotein A-I (apoA-I)", "setting": "[3]; [5]", "result": "increase"}, {"measurement": "apolipoprotein B-100 (apoB-100)", "setting": "[3]; [5]", "result": "decrease"}, {"measurement": "accumulation ratio for AUC0-24h", "setting": "[4]; 420 mg once daily, Day 14 to Day 1", "result": 1.4}, {"measurement": "accumulation with once-daily regimen", "setting": "[4]; across doses except the highest dose (420 mg)", "result": "No accumulation was apparent"}, {"measurement": "half-life", "setting": "[4]; male, human, in vivo, oral, after multiple doses above 10 mg, read-out: mean terminal half-life", "result": "15 to 35", "unit": "h"}, {"measurement": "dose up to which AUC0-24h and Cmax increased dose-proportionally", "setting": "[4]; multiple doses (part 2 MAD)", "result": "≤ 180", "unit": "mg"}, {"measurement": "lag time (Tlag)", "setting": "[4]; oral, SAD and MAD, first clinical study", "result": 0.5, "unit": "h"}, {"measurement": "dose up to which AUC0-24h and Cmax increased dose-proportionally", "setting": "[4]; single doses (part 1 SAD)", "result": "≤ 360", "unit": "mg"}, {"measurement": "cholesterol efflux from cells", "setting": "scavenger receptor SRB1", "result": "efflux cholesterol from cells via scavenger receptor SRB1"}, {"measurement": "inhibition of CETP activity in vivo", "setting": "CETP activity", "result": "inhibition of CETP activity has been demonstrated"}]}
